Data from ChEMBL document CHEMBL6078666, “Discovery of Novel Coumarin Pleuromutilin Derivatives as Potent Anti-MRSA Agents” (J Med Chem, 2024).
In brackets after ≈: the same amount, converted by molar mass. Activity calls are given as the source filed them. No cut-off for these calls is given here.

Legend:
[1] = system: Staphylococcus aureus; experiment: Antibacterial activity against methicillin-resistant Staphylococcus aureus ATCC 33591 infected in female C57 mouse systemic infection model assessed as reduction in bacterial load in lung at 40 mg/kg, iv administered twice daily and measured after 7 days; type: functional; conditions: time 7 day
[2] = system: Staphylococcus aureus; experiment: Antibacterial activity against methicillin-resistant Staphylococcus aureus ATCC 33591 infected in female C57 mouse systemic infection model assessed as restoration of cell morphology at 40 mg/kg, iv administered twice daily and measured after 7 days by H and E staining based analysis; type: functional, organism-based; conditions: time 7.0 day
[3] = system: Staphylococcus aureus; experiment: Antibacterial activity against methicillin-resistant Staphylococcus aureus clinical isolate 202311772 assessed as bacterial growth inhibition measured after 20 hrs by broth dilution method; type: functional
[4] = system: Staphylococcus aureus; experiment: Bactericidal activity against methicillin-resistant Staphylococcus aureus ATCC 33591 at 2 times MIC measured after 8 to 12 hrs by time kill assay; type: functional, organism-based; conditions: time 8-12 hrs
[5] = system: Enterococcus faecium; experiment: Ratio of MBC to MIC against vancomycin-resistant Enterococcus faecium ATCC 51559; type: functional
[6] = system: Streptococcus pneumoniae; experiment: Ratio of MBC to MIC against penicillin-resistant Streptococcus pneumoniae ATCC 51916; type: functional
[7] = system: Staphylococcus aureus; experiment: Antibacterial activity against methicillin-resistant Staphylococcus aureus clinical isolate 202313160 assessed as bacterial growth inhibition measured after 20 hrs by broth dilution method; type: functional
[8] = system: Staphylococcus aureus; experiment: Antibacterial activity against methicillin-resistant Staphylococcus aureus ATCC 43300 assessed as bacterial growth inhibition measured after 20 hrs by broth dilution method; type: functional
[9] = system: Staphylococcus aureus; experiment: Antibacterial activity against methicillin-resistant Staphylococcus aureus ATCC 33591 infected in female C57 mouse systemic infection model assessed as survival rate at 5 mg/kg, po measured upto 7 days relative to control; type: functional; conditions: ATCC 33591, 168 h, time <= 7 day
[10] = MRT in mouse at 5 mg/kg, iv measured after 8 hrs; type: ADME, organism-based; conditions: in vivo
[11] = system: Staphylococcus epidermidis; experiment: Ratio of MBC to MIC against methicillin-resistant Staphylococcus epidermidis clinical isolate 202409139; type: functional
[12] = system: Staphylococcus aureus; experiment: Antibiofilm activity in methicillin-resistant Staphylococcus aureus ATCC 33591 assessed as disruption of preformed biofilm at 1 time MIC measured after 24 hrs by crystal violet staining based assay relative to control; type: functional
[13] = system: Staphylococcus aureus; experiment: Antibacterial activity against methicillin-resistant Staphylococcus aureus ATCC 33591 infected in female C57 mouse systemic infection model assessed as reduction in bacterial load in kidney at 40 mg/kg, iv administered twice daily and measured after 7 days; type: functional; conditions: time 7 day
[14] = system: Staphylococcus aureus; experiment: Antibacterial activity against methicillin-resistant Staphylococcus aureus ATCC 33591 infected in female C57 mouse systemic infection model assessed as survival rate at 40 mg/kg, po measured upto 7 days relative to control; type: functional; conditions: ATCC 33591, 168 h, time <= 7 day
[15] = system: Staphylococcus epidermidis; experiment: Ratio of MBC to MIC against Staphylococcus epidermidis ATCC 51625; type: functional
[16] = system: Staphylococcus aureus; experiment: Antibacterial activity against methicillin-resistant Staphylococcus aureus ATCC 33591 infected in female C57 mouse systemic infection model assessed as reduction in vacuolation in heart at 40 mg/kg, iv administered twice daily and measured after 7 days by H and E staining based analysis; type: functional, organism-based; conditions: time 7.0 day
[17] = system: Staphylococcus aureus; experiment: Antibacterial activity against methicillin-resistant Staphylococcus aureus ATCC 33591 infected in female C57 mouse systemic infection model assessed as reduction in inflammatory cell aggregation in lung at 40 mg/kg, iv administered twice daily and measured after 7 days by H and E staining based analysis; type: functional, organism-based; conditions: time 7.0 day
[18] = system: Staphylococcus aureus; experiment: Antibacterial activity against methicillin-resistant Staphylococcus aureus ATCC 33591 infected in female C57 mouse systemic infection model assessed as reduction in appearance of loosely arranged cells in spleen at 40 mg/kg, iv administered twice daily and measured after 7 days by H and E staining based analysis; type: functional, organism-based; conditions: time 7.0 day
[19] = system: Staphylococcus aureus; experiment: Antibiofilm activity in methicillin-resistant Staphylococcus aureus ATCC 33591 assessed as inhibition of biofilm formation measured after 48 hrs by crystal violet staining based analysis relative to control; type: functional, organism-based
[20] = system: Staphylococcus aureus; experiment: Ratio of MBC to MIC against methicillin-resistant Staphylococcus aureus clinical isolate 202313160; type: functional
[21] = system: Staphylococcus aureus; experiment: Antibacterial activity against methicillin-resistant Staphylococcus aureus ATCC 33591 infected in female C57 mouse systemic infection model assessed as reduction in disordered myocardial fibers in heart at 40 mg/kg, iv administered twice daily and measured after 7 days by H and E staining based analysis; type: functional, organism-based; conditions: time 7.0 day
[22] = system: Staphylococcus epidermidis; experiment: Antibacterial activity against methicillin-resistant Staphylococcus epidermidis clinical isolate 202409139 assessed as bacterial growth inhibition measured after 20 hrs by broth dilution method; type: functional
[23] = system: Staphylococcus aureus; experiment: Induction of morphological changes in methicillin-resistant Staphylococcus aureus ATCC 33591 assessed as appearance of wrinkled cell surface at 1 to 4 times MIC measured after 4 hrs by SEM analysis; type: functional, organism-based
[24] = system: Staphylococcus aureus; experiment: Antibacterial activity against methicillin-resistant Staphylococcus aureus ATCC 33591 infected in female C57 mouse systemic infection model assessed as reduction of edema in kidney at 40 mg/kg, iv administered twice daily and measured after 7 days by H and E staining based analysis; type: functional, organism-based; conditions: time 7.0 day
[25] = system: A549; experiment: Cytotoxicity against human A549 cells at 0 to 40 ug/ml measured after 24 hrs by MTT assay relative to control; type: functional; conditions: dose 0-40 µg/ml
[26] = system: Enterococcus faecium; experiment: Antibacterial activity against vancomycin-resistant Enterococcus faecium ATCC 51559 assessed as bacterial growth inhibition measured after 20 hrs by broth dilution method; type: functional
[27] = system: Streptococcus pneumoniae; experiment: Ratio of MBC to MIC against penicillin-intermediate Streptococcus pneumoniae ATCC 49619; type: functional
[28] = system: Streptococcus pneumoniae; experiment: Antibacterial activity against penicillin-resistant Streptococcus pneumoniae ATCC 51916 assessed as bacterial growth inhibition measured after 20 hrs by broth dilution method; type: functional
[29] = system: Staphylococcus aureus; experiment: Antibacterial activity against methicillin-resistant Staphylococcus aureus ATCC 33591 infected in female C57 mouse systemic infection model assessed as reduction in number of inflammatory cells in heart at 40 mg/kg, iv administered twice daily and measured after 7 days by H and E staining based analysis; type: functional, organism-based; conditions: time 7.0 day
[30] = system: Staphylococcus aureus; experiment: Antibacterial activity against methicillin resistant Staphylococcus aureus ATCC 33591 assessed as post antibiotic effect at 4 times MIC by time kill assay; type: functional
[31] = system: Enterococcus faecium; experiment: Antibacterial activity against vancomycin-resistant Enterococcus faecium clinical isolate 202308456 assessed as bacterial growth inhibition measured after 20 hrs by broth dilution method; type: functional
[32] = system: L02; experiment: Cytotoxicity against human HL7702 cells at 0 to 40 ug/ml measured after 24 hrs by MTT assay relative to control; type: toxicity, cell-based; conditions: l02, 24 h, dose 0-40 µg/ml
[33] = system: HepG2; experiment: Cytotoxicity against human HepG2 cells at 0 to 40 ug/ml measured after 24 hrs by MTT assay relative to control; type: functional; conditions: dose 0-40 µg/ml
[34] = system: Staphylococcus aureus; experiment: Antibacterial activity against methicillin-resistant Staphylococcus aureus ATCC 33591 infected in female C57 mouse systemic infection model assessed as reduction in bacterial load in spleen at 40 mg/kg, iv administered twice daily and measured after 7 days; type: functional; conditions: time 7 day
[35] = Hemolytic activity in rabbit RBC assessed as hemolysis rate at 200 ug/ml incubated for 1 hr by microplate reader analysis relative to control; type: toxicity, cell-based, Oryctolagus cuniculus, Erythrocyte; conditions: rabbit red blood cells, at 200 µg/mL, read-out: Activity
[36] = AUC (0 to t) in mouse at 5 mg/kg, iv measured after 8 hrs; type: ADME, organism-based; conditions: in vivo

In the case of `C=C[C@]1(C)C[C@@H](OC(=O)CSc2cc(=O)oc3cc(OC)ccc23)[C@]2(C)[C@H](C)CC[C@]3(CCC(=O)[C@H]32)[C@@H](C)[C@@H]1O`, the Activity [1] is reported as 2.21 log10CFU/g, the Activity [2] is reported as “Active” and the MIC [3] is reported as 0.031 µg/mL (≈ 0.0545 µM). For the same compound, the Activity [4] was “Active”, the Ratio [5] was 1 and the Ratio [6] was 2. The MIC [7] was 0.063 µg/mL (≈ 0.111 µM), the MIC [8] was 0.031 µg/mL (≈ 0.0545 µM) and the survival at 5 mg/kg [9] was 40%. The MRT [10] was 36.6 min, the Ratio [11] was 2 and the Activity [12] was 30.31%. For the same compound, the Activity [13] was 1.91 log10CFU/g, the survival at 40 mg/kg [14] was 80% and the Ratio [15] was 4. For the same compound, the Activity [16] was “Active”, the Activity [17] was “Active” and the Activity [18] was “Active”. The Activity [19] was “Dose-dependent-effect”, the Ratio [20] was 2 and the Activity [21] was “Active”. For the same compound, the MIC [22] was 0.031 µg/mL (≈ 0.0545 µM), the Activity [23] was “Active” and the Activity [24] was “Active”. For the same compound, the Activity [25] was >85%, the MIC [26] was 0.031 µg/mL (≈ 0.0545 µM) and the Ratio [27] was >4. For the same compound, the MIC [28] was 0.063 µg/mL (≈ 0.111 µM), the Activity [29] was “Active” and the PAE [30] was 1.9 h. For the same compound, the MIC [31] was 0.031 µg/mL (≈ 0.0545 µM), the Activity [32] was > 85% and the Activity [33] was >85%. The Activity [34] was 1.68 log10CFU/g, the hemolysis at 1 h, 200 ug/ml [35] was < 8% and the AUCt [36] was 1740 ng·h/mL.
